Here are results for one compound from patent US20240350430A1, “GROWTH INHIBITOR OF METASTATIC HUMAN PROSTATE CANCER CELLS” (Watanabe Oyster Laboratory Co., Ltd., priority 2021, published 2024).

Assay [1] relates to PC-3 cells. In words: Colony formation of PC-3 cells. The assay is classed as cell-based, human. The following applies: DHMBA 1 or 10 μM, nine days. As to the method:
The PC-3 and DU-145 cells (1×10^3/in 2 ml of a culture fluid per hole using a six-hole plate) were cultured in a DMEM culture fluid (containing 10% of FBS, 1% of P/S, and 1% of fungizone) containing the DHMBA (1 and 10 μM) under 5% of CO2, at 37° C., for nine days. After the culture, the culture fluid was removed, the cells were washed twice with PBS, 95% of methanol (0.5 ml) was added, and the cells were fixed for 20 minutes. After the fixation, each well of a culture dish was washed four times with PBS (1 ml), and after that 0.5% of crystal violet (0.5 ml) was added, and the product was left for two hours at room temperature for staining. After the stain solution was washed to be removed, drying was performed, and after that colonies containing 50 or more cells were counted by a microscope (Olympus MTV-3, Olympus Corporation, Tokyo, Japan).
FIG. 1(A) is a drawing in which the PC-3 cells (the cell number of 1×10^3/per well of a six-well plate) were cultured under 5% of CO2, at 37° C., for nine days in a DMEM culture fluid (containing 10% of FBS, 1% of P/S, and 1% of fungizone) containing the DHMBA (1 or 10 μM).
FIG. 1(B) is a diagram of counting the number of colonies.

Assay [2] relates to PC-3 cells. Briefly: Western blot of protein expression levels in PC-3 cells. The assay is classed as cell-based, human. The conditions noted are these: DHMBA 10 μM, three days. As to the method:
The PC-3 cells (1×10^6 cells/10 ml, 100-mm dish) were cultured in a DMEM culture fluid containing 10% of FBS, 1% of P/S, and 1% of fungizone under 5% of CO2, at 37° C., for three days. In addition, the culture fluid contained the DHMBA (10 μM). After the culture, the cells were adjusted by adding a cell lysis buffer (Cell Signaling Technology, Danvers, MA, USA) containing proteolytic enzyme and a protein phosphatase activity inhibitor. The cell solution was centrifuged at 17,000×g at 4° C. for 10 minutes to collect the supernatant. An amount of protein in the supernatant was measured using Bio-Rad Protein Assay Dye (Bio-Rad Laboratories, Inc., Hercules, CA, USA) with albumin as reference protein. Protein samples were stored in a freezer at −80° C. until being used. Using 40 μg of a protein sample solution, the product was added to SDS polyacrylamide gel electrophoresis (SDS-PAGE, 12%) and separated. After that, the protein molecules were transferred to a nylon membrane. Immunoblot was performed on the membrane using an antibody that specifically bound to the protein molecules. The antibodies, such as Ras (cat. no. 3339, rabbit), Akt (cat. no. 9272, rabbit), mitogen-activated protein kinase (MAPK: cat. no. 4695, rabbit), phosphorylated-MAPK (cat. no. 4370, rabbit), mechanistic target of rapamycin (mTOR, cat. no. 4517, mouse), Rb (cat. no. 9309, mouse), p21 (cat. no. 2947, rabbit), caveolin-1 (cat. no. 3267, rabbit), and β-actin (cat. no. 3700, mouse), were purchased from Cell Signaling Technology (Danvers, MA, USA). Also, p53 (cat. no. sc-126, mouse), NF-κB p65 (cat. no. sc-109, rabbit), and integrin β1 (cat. no. sc-13590, mouse) were obtained from Santa Cruz Biotechnology, Inc. (Santa Cruz, CA, USA). In addition, rabbit anti-regucalcin antibody was purchased from Sigma-Aldrich (cat. no. HPA029103, rabbit). Target proteins were incubated at low temperature for 16 hours using the primary antibodies described above. After that, using a secondary antibody of horseradish peroxidase-conjugated secondary antibodies (Santa Cruz Biotechnology, Inc., mouse sc-2005 or rabbit sc-2305; diluted 1:1,000), incubation was performed for 60 minutes at room temperature. After that, protein bands were illuminated with chemiluminescence substrate (cat. no. 34577, Thermo Scientific, Rockford, IL, USA) and exposed and detected on X-ray films using a developer.
(§1) The PC-3 cells (1×10^6 cells/10 ml, 100-mm dish) were cultured under 5% of CO2, at 37° C., for three days in a DMEM culture fluid containing 10% of FBS, 1% of P/S, and 1% of fungizone. In addition, the culture fluid contained the DHMBA (10 μM). After the culture, the cells were adjusted by adding a cell lysis buffer (Cell Signaling Technology, Danvers, MA, USA) containing proteolytic enzyme and a protein phosphatase activity inhibitor. Using 40 μg of a protein sample solution, the product was separated by SDS polyacrylamide gel electrophoresis (SDS-PAGE, 12%). After that, the protein molecules were transferred to a nylon membrane. Immunoblot was performed on the membrane using an antibody that specifically bound to the protein molecules.
as §1, with “In FIG. 5(G), the” for “The”, “molecules. […]” for “molecules.”
(Immunoblotting shows a protein as a band on a membrane.)

Turning to `COc1c(O)cc(CO)cc1O` [DHMBA, 3,5-dihydroxy-4-methoxybenzyl alcohol], the colony formation result in assay [1] was “significantly inhibited”. In assay [2], the “expression level of Akt” value was “significantly inhibited”, the “expression level of MAP kinase” value was “significantly inhibited”, the “expression level of NF-κB p65” value is “significantly decreased” and the “expression level of PI3 kinase” value is “significantly inhibited”. In assay [2], the “expression level of Ras” value is “significantly inhibited”, the “expression level of Rb” value is “significantly increased”, the “expression level of caveolin-1” value is “significantly decreased” and the “expression level of integrin β1” value is listed as “significantly decreased”. In assay [2], the “expression level of mTOR” value is recorded as “significantly inhibited”, the “expression level of p21” value is given as “significantly increased”, the “expression level of p53” value is given as “significantly increased” and the “expression level of phospho-MAP kinase” value was “significantly inhibited”. In addition, in assay [2], the “expression level of regucalcin” value was “significantly increased”, the “level of activated caspase 3 (cleaved caspase-3)” value was “increased” and the “level of caspase 3” value was “increased”.
